These results are taken from patent publication US8404805B2, “Characterization of GRP94-ligand interactions and purification, screening, and therapeutic methods relating thereto” (Duke University, priority 2000, dated 2013).

The target in assay [1] is casein kinase II (Homo sapiens, UniProt P68400). Briefly: Casein kinase assay. In kind it is biochemical. The settings on record: 180 μM NECA or radicicol in 3.6% DMSO, 5 μg/ml heparin, 5 mM GTP. As for the experimental part:
(§1) Phosphorylation Assays. […] For the casein kinase assay, 1 unit of casein kinase II was incubated as described above, with the addition of 4:M casein. […] The 25:I reaction mixtures were incubated at 37° C. for 1 hour and quenched by addition of 10% trichloroacetic acid. Samples were analyzed by 10% SDS-PAGE gels and the phosphorylated species were quantitated using a Fuji MACBAS1000™ phosphorimaging system (Fuji Medical Systems of Stamford, Conn.).

For assay [2], the system named is BiP. Nature of the assay: [3H]-NECA binding assay (vacuum filtration). The settings on record: 20 nM [3H]-NECA, 60 min on ice.
Method: (§3) Where indicated, binding reactions were performed in either buffer C (10 mM Tris, pH 7.5, 50 mM KCl, 5 mM MgCl2, 2 mM DTT, 0.01% NP-40, 20 mM Na2MoO4) or 50 mM Tris, pH 7.5, 10 mM Mg(OAc)2. […] Vacuum filtration was performed with an Amersham Pharmacia Biotech (Piscataway, N.J.) vacuum filtration manifold.
Assay [3] concerns the target T1, GRP94 (Sus scrofa, UniProt Q29092). Briefly: Tryptophan fluorescence of GRP94 (tertiary conformational state). Conditions: 50 μM NECA, 50 μM geldanamycin, 2.5 mM ATP or 2.5 mM ADP, 1 hour at 37° C., excitation 295 nm. Details: GRP94 was purified from porcine pancreas; from tissue; host or cells: porcine pancreas (rough microsomes). In kind it is biochemical, porcine.
Method: Tryptophan Fluorescence. Tryptophan fluorescence measurements were conducted in a FLUOROMAX™ spectrofluorometer (Spex Industries, Inc. of Edison, N.J.) with the slit widths set to 1 nm for both excitation and emission. […] All spectra were corrected by subtraction of buffer or buffer plus ligand samples. […] Samples were then cooled to room temperature, transferred to a quartz cuvette, and the spectra collected.

For assay [4], the target named is T1, GRP94. Briefly: Isothermal titration calorimetry. In kind it is binding, porcine. Also on record: GRP94 was purified from porcine pancreas; from tissue; host or cells: porcine pancreas (rough microsomes). Conditions: 5 μM GRP94, 152 μM NECA stock, 25° C.
Method: Isothermal calorimetry experiments were performed at 25° C. using a MSC calorimeter (MicroCal Inc. of Northampton, Mass.). […] Necessary corrections were made by subtracting the heats of dilution resulting from buffer addition to protein solution and ligand solution into buffer.
Assay [5] deals with T1, GRP94. Nature of the assay: ATPase assay (HPLC). In kind it is biochemical, porcine. Details: GRP94 was purified from porcine pancreas; from tissue; host or cells: porcine pancreas (rough microsomes). As for the experimental part:
Samples were then spun through a CENTRICON®-30 (Amicon of Beverly, Mass.) at 10,000 rpm, 4° C. to separate protein from nucleotide. A final concentration of 50 mM (NH4)2HPO4, pH 7.0, and 4:M AMP, pH 7.0, was added to dilutions of the above samples and centrifuged at 15,200 rpm for 5 minutes at 4° C. 100:L of supernatant was then fractionated on a […] column (Alltech of Deerfield, Ill.), using a Series 1050 Hewlett Packard HPLC system. Elution of nucleotides was performed by step gradient elution using a mobile phase of 150 mM (NH4)2HPO4, pH 5.2, at 1.2 ml/min for the first ten minutes, followed by 300 mM (NH4)2HPO4, pH 5.2, at a flow rate of 2 ml/min for the remainder of the elution. In this protocol, ADP and ATP were well resolved, with ADP eluting at 7 minutes and ATP at 12 minutes. Peak height values were used in calculations of percent hydrolysis and ADP formation. Spontaneous hydrolysis was determined for each ATP concentration in paired incubations lacking GRP94. The AMP was used as an internal reference standard to control for equivalent sample loading.

Assay [6] deals with T1, GRP94. Nature of the assay: [3H]-NECA competitive displacement assay. Conditions: for effect of excess Mg2+ on binding to GRP94: 10 mM Mg(OAc)2 versus nominal magnesium; for competition with [3H]-NECA for binding to GRP94: nominal (80 μM) Mg2+; for relative affinity of GRP94 for the nucleotide: NECA displacement; for binding to GRP94, nucleoside base specificity by [3H]-NECA displacement: competitors at 50 μM; for relative affinities of binding to GRP94 in excess Mg2+: 10 mM Mg(OAc)2.
Method: as §3

Assay [7] concerns the target T1, GRP94. Briefly: GRP94 autophosphorylation assay. In kind it is biochemical, porcine. Also on record: GRP94 was purified from porcine pancreas; from tissue; host or cells: porcine pancreas (rough microsomes). The settings on record: 180 μM NECA or radicicol in 3.6% DMSO, 5 μg/ml heparin, 5 mM GTP. How it is done:
as §1

Assay [8] concerns the target T1, GRP94. Briefly: [3H]-NECA binding assay (vacuum filtration).
Method: as §3
The target of assay [9] is T1, GRP94. Briefly: Polarity-sensitive fluorescent probe binding to GRP94 (fluorescence emission). Also on record: GRP94 was purified from porcine pancreas; from tissue; host or cells: porcine pancreas (rough microsomes); species or system porcine. Conditions: for probe interaction with native versus heat shocked GRP94 (emission spectra): 0.5 μM GRP94, 5 μM probe, 30 min at 37° C.
Method: Fluorescent probes were obtained from Molecular Probes (Eugene, Oreg.). […] All other reagents were obtained from Sigma Chemical Co. (St. Louis, Mo.) unless otherwise indicated. […] Fluorophore Binding Reactions. […] For all assays, control reactions at solvent dilutions identical to experimental conditions were performed to correct for any solvent effects. […] Fluorescence Measurements. Emission spectra were obtained in a FLUOROMAXTM spectrofluorometer (SPEX Industries Inc. of Edison, N.J.) operating in photon counting mode. Spectra were recorded and processed with DM3000f operating software, version 2.1 (SPEX Industries Inc. of Edison, N.J.). For emission scans, slit width was set at 1 nm. […] All spectra were background corrected.

Assay [10] concerns the target T1, GRP94. Nature of the assay: [32P]ATP binding assay. Details: GRP94 was purified from porcine pancreas; from tissue; host or cells: porcine pancreas (rough microsomes); species or system porcine. The settings on record: 50 μM [32P]ATP, 1 hour on ice. As for the experimental part:
(§2) ATP Binding Assay. Six:g of GRP94, BiP, and Hsp90 was incubated with 50:M (-[^32P] ATP (1000 ΦCi/Φmol) (Amersham Pharmacia Biotech of Piscataway, N.J.) in buffer B on ice for 1 hour. Nitrocellulose filters (BA85) (Schleicher & Schuell of Keene, N.H.) were individually wet in buffer B before use, and bound versus free [^32P]-ATP was separated by vacuum filtration. Filters were washed with 3×2 mL of ice cold buffer B, placed in 5 mL of scintillation fluid, vortexed, and counted.

In assay [11] the test system is BiP. Briefly: [32P]ATP binding assay. Details: species or system porcine. Conditions: 50 μM [32P]ATP, 1 hour on ice. How it is done:
as §2

Assay [12] has as its system Hsp90. Nature of the assay: [32P]ATP binding assay. The settings on record: 50 μM [32P]ATP, 1 hour on ice. Also on record: species or system rat. How it is done:
as §2

For assay [13], the system named is HSP90. The settings on record: Prodromou et al. (1997); cited from earlier work.
The target in assay [14] is HSP90 (Saccharomyces cerevisiae, UniProt P02829). Conditions: Roe et al. (1999); cited from earlier work.
HSP90 (Saccharomyces cerevisiae, UniProt P02829), sequence (P02829 whole entry): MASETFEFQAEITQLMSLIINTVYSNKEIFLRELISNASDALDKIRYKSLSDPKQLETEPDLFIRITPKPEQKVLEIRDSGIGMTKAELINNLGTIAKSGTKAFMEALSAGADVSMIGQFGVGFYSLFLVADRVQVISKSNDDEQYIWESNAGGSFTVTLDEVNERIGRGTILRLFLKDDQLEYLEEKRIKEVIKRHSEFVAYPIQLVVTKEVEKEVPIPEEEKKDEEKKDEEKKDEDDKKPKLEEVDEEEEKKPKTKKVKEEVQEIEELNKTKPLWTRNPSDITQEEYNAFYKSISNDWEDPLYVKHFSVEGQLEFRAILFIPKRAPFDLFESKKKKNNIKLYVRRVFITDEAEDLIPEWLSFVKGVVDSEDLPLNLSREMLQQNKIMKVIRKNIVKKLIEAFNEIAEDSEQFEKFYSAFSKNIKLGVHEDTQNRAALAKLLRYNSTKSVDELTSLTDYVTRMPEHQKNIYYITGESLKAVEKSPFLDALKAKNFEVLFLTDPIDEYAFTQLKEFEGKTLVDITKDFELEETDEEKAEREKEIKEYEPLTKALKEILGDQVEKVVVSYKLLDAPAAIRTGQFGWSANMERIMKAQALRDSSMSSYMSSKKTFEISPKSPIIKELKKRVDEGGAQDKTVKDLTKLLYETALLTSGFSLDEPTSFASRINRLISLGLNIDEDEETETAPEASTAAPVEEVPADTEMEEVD

T1 sequence (Q29092 22-804): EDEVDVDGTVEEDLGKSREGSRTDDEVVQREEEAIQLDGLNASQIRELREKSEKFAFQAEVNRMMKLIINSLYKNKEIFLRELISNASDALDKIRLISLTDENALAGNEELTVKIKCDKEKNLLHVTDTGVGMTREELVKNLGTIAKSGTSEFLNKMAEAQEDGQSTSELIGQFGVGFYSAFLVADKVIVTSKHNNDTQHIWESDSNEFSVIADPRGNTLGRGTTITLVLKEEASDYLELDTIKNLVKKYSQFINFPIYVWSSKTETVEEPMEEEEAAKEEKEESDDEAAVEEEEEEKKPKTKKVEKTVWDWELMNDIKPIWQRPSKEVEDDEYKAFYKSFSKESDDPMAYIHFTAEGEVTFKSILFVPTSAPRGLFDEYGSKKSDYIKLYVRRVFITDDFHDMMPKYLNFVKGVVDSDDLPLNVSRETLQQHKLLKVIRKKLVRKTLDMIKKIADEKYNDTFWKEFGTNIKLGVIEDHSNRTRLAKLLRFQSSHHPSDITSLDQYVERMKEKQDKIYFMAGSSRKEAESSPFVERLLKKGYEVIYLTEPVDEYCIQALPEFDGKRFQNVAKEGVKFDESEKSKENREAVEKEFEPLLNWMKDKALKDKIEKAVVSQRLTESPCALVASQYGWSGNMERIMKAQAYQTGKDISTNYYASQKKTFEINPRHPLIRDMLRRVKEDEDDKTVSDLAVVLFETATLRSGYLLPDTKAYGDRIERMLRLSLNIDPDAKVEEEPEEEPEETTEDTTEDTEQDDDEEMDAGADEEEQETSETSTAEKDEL
casein kinase II, sequence (P68400 whole entry): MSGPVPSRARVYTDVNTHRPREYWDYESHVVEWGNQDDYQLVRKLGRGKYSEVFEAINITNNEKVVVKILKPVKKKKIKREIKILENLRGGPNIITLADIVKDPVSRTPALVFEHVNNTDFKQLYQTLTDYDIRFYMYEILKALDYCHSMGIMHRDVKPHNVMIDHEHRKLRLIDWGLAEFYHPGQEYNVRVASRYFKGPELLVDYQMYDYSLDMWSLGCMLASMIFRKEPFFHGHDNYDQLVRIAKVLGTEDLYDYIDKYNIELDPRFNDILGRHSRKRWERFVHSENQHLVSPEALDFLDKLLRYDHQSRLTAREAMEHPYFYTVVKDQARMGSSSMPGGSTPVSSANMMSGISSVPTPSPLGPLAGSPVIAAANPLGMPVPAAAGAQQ
casein kinase II, sequence (P67870 whole entry partner): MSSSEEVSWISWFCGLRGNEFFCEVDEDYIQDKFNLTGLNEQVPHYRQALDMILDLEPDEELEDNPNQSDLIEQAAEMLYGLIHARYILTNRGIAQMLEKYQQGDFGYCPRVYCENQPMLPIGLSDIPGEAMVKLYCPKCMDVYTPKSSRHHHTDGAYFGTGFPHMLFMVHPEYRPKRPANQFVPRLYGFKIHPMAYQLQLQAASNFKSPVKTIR

On to `CCNC(=O)[C@H]1O[C@@H](n2cnc3c(N)ncnc32)[C@H](O)[C@@H]1O` [NECA, N-ethylcarboxamidoadenosine], for which, in assay [1], the “effect on casein kinase II activity” value is “neither NECA nor radicicol, both of which bind to the N-terminal nucleotide binding domain of GRP94, significantly inhibit GRP94 derived or casein kinase II activity below the solvent background”. Further, the “[3H]-NECA binding activity” value is on record as “not observed” in assay [2] and “readily detectable” in [8] (20 nM [3H]-NECA, 60 min on ice). In addition, the “change of GRP94 tryptophan fluorescence” value in assay [3] was “increased the tryptophan fluorescence”. Further, the “binding stoichiometry by isothermal titration calorimetry” value in [4] was found to be 1.1 mol NECA/mol GRP94 dimer. Besides, in assay [5], the “effect on GRP94 ATPase activity” value was “sensitive to inhibition by NECA”. The “effect of excess Mg2+ on binding to GRP94” value (“effect of excess Mg2+” for short) in [6] is recorded as “without effect”. Moreover, in assay [7], the “effect on GRP94 autophosphorylation (GRP94-derived kinase) activity” value (“effect on GRP94 autophosphorylation” below) is “neither NECA nor radicicol, both of which bind to the N-terminal nucleotide binding domain of GRP94, significantly inhibit GRP94 derived or casein kinase II activity below the solvent background”. The “slope of Hill plot” value in assay [8] came to 1.2. Moreover, the binding stoichiometry in assay [8] (radioligand, vacuum filtration) is 0.5 mol [^3H]-NECA/mol GRP94 monomer.
As to `Nc1ncnc2c1ncn2[C@@H]1O[C@H](COP(=O)(O)O)[C@@H](O)[C@H]1O` [AMP], the “competition with [3H]-NECA for binding to GRP94” value (shortened to “competition with [3H]-NECA”) in assay [6] (20 nM [3H]-NECA) is recorded as “effectively competed”. Further, in assay [6], the “effect of excess Mg2+” value was “markedly stimulated” and the “relative affinity of GRP94 for the nucleotide” value (from here on “relative affinity of GRP94”) is “quite low”.
Take heparin: the “effect on casein kinase II activity” value in assay [1] is “markedly attenuated”. In [7], the “effect on GRP94 autophosphorylation” value is on record as “markedly attenuated”.
On to `O=c1ccn([C@@H]2O[C@H](COP(=O)(O)OP(=O)(O)OP(=O)(O)O)[C@@H](O)[C@H]2O)c(=O)[nH]1` [UTP], for which the “binding to GRP94, nucleoside base specificity by [3H]-NECA displacement” value (“binding to GRP94 … [3H]-NECA displacement” for short) in [6] (20 nM [3H]-NECA) is listed as “little to no binding”.
For `CCC(=O)c1ccc2cc(N(C)C)ccc2c1` [Prodan, 6-propionyl-2-(dimethylamino)naphthalene], in assay [9], the “probe interaction with native versus heat shocked GRP94 (emission spectra)” value is listed as “does not interact with the hydrophobic binding pocket(s) displayed by heat shocked GRP94”.
Turning to `Nc1ncnc2c1ncn2[C@@H]1O[C@H](CO)[C@@H](O)[C@H]1O` [adenosine], in assay [6] (20 nM [3H]-NECA), the “relative displacement activity of [3H]-NECA” value is reported as “approximating that observed for ADP”. Besides, in assay [6], the “effect of excess Mg2+” value is recorded as “without effect”.
Consider `Nc1ncnc2c1ncn2[C@@H]1O[C@H](COP(=O)(O)OP(=O)(O)OP(=O)(O)O)[C@@H](O)[C@H]1O` [ATP], for which the ATP binding result in assay [10] was “no ATP binding was observed”. In [3], the “change of GRP94 tryptophan fluorescence” value is reported as “decreased”. In assay [6] (20 nM [3H]-NECA), the “molar excess required for 50% inhibition of [3H]-NECA binding” value is ~1000 -fold molar excess; the “competition with [3H]-NECA” value is on record as “effectively competed”; the “binding to GRP94 … [3H]-NECA displacement” value is reported as “could bind”. For the same molecule, in [6], the “relative affinities of binding to GRP94 in excess Mg2+” value is “nearly identical relative affinities”, the “effect of excess Mg2+” value is reported as “markedly stimulated” and the “relative affinity of GRP94” value is listed as “quite low”. Further, in assay [6] (nominal Mg2+), the “efficacy of competing NECA binding, ATP relative to ADP” value is “eight”. Also, the ATP binding entry in assay [11] is given as “displayed the expected ATP binding activity”. Besides, the ATP binding entry in assay [12] is “no ATP binding was observed”.
Consider `Nc1ncnc2c1ncn2[C@@H]1O[C@H](COP(=O)(O)OP(=O)(O)O)[C@@H](O)[C@H]1O` [ADP], for which the “change of GRP94 tryptophan fluorescence” value in assay [3] is “decreased”. Besides, in assay [6] (20 nM [3H]-NECA), the “competition with [3H]-NECA” value is “effectively competed”. In addition, in [6], the “relative affinities of binding to GRP94 in excess Mg2+” value is recorded as “nearly identical relative affinities”, the “effect of excess Mg2+” value was “markedly stimulated” and the “relative affinity of GRP94” value is “quite low”. Further, the “affinity of N-terminal domain of Hsp90 for ADP relative to ATP” value in assay [13] was “four”.
`Nc1ncnc2c1ncn2[C@H]1C[C@H](O)[C@@H](COP(=O)(O)OP(=O)(O)OP(=O)(O)O)O1` [deoxyATP]: in assay [6] (20 nM [3H]-NECA), the “binding to GRP94 … [3H]-NECA displacement” value is “could bind”.
Regarding `Nc1nc2c(ncn2[C@@H]2O[C@H](COP(=O)(O)OP(=O)(O)OP(=O)(O)O)[C@@H](O)[C@H]2O)c(=O)[nH]1` [GTP], the “effect on casein kinase II activity” value in assay [1] was “markedly attenuated”. Moreover, in [6] (20 nM [3H]-NECA), the “binding to GRP94 … [3H]-NECA displacement” value is given as “little to no binding”. In addition, the “effect on GRP94 autophosphorylation” value in assay [7] was “markedly attenuated”.
For `O=S(=O)(O)c1cccc2cccc(Nc3ccccc3)c12` [8-ANS, 1,8-anilinonaphthalenesulfonate], in [9], the “agonist activity for GRP94 activation” value was “lacks agonist activity” and the “probe interaction with native versus heat shocked GRP94 (emission spectra)” value was “displays weak interactions with native GRP94, yet binds avidly following heat shock”.
As for `Nc1ccn([C@@H]2O[C@H](COP(=O)(O)OP(=O)(O)OP(=O)(O)O)[C@@H](O)[C@H]2O)c(=O)n1` [CTP], the “binding to GRP94 … [3H]-NECA displacement” value in [6] (20 nM [3H]-NECA) is listed as “little to no binding”.
Turning to `C[C@@H]1C[C@H]2O[C@@H]2/C=C\C=C\C(=O)Cc2c(Cl)c(O)cc(O)c2C(=O)O1` [radicicol], in assay [1], the “effect on casein kinase II activity” value is listed as “neither NECA nor radicicol, both of which bind to the N-terminal nucleotide binding domain of GRP94, significantly inhibit GRP94 derived or casein kinase II activity below the solvent background”. In assay [14], the expected binding stoichiometry is recorded as 2 mol radicicol/mol Hsp90 dimer.
